For assay [1], the system named is Staphylococcus aureus MRQR (methicillin resistant and quinolone resistant). The assay is described as follows: MIC, agar-dilution, staphylococci. The format is cell-based. To be noted: 10^4 CFU/spot, 37° C., 24 hours. The procedure:
(§1) The following results were obtained on a standard in-vitro test system. The activity is described in terms of the minimum inhibitory concentration (MIC) determined by the agar-dilution technique with an inoculum size of 10^4 CFU/spot. Typically, compounds are active in the range 0.01 to 256 μg/ml.
(§2) Staphylococci were tested on agar, using an inoculum of 10^4 CFU/spot and an incubation temperature of 37° C. for 24 hours—standard test conditions for the expression of methicillin resistance.

The subject of assay [2] is Staphylococcus aureus MSQS (methicillin sensitive and quinolone sensitive). Kind of assay: MIC, agar-dilution, staphylococci. Conditions: 10^4 CFU/spot, 37° C., 24 hours. Type of assay: cell-based. On the procedure: as §1, §2
Assay [3] relates to Streptococcus pneumoniae. Kind of assay: MIC, agar with 5% defibrinated horse blood. Type of assay: cell-based. Conditions: agar + 5% horse blood, 5% carbon dioxide, 48 hours. The procedure: as §1
(§3) Streptococci and enterococci were tested on agar supplemented with 5% defibrinated horse blood, an inoculum of 10^4 CFU/spot and an incubation temperature of 37° C. in an atmosphere of 5% carbon dioxide for 48 hours—blood is required for the growth of some of the test organisms. Fastidious Gram negative organisms were tested in Mueller-Hinton broth, supplemented with hemin and NAD, grown aerobically for 24 hours at 37° C., and with an innoculum of 5×10^4 CFU/well.

Assay [4] concerns Streptococcus pyogenes. Kind of assay: MIC, agar with 5% defibrinated horse blood. Type of assay: cell-based. To be noted: agar + 5% horse blood, 5% carbon dioxide, 48 hours. On the procedure: as §1, §3
Assay [5] deals with Haemophilus influenzae. The assay is described as follows: MIC, fastidious Gram negative organisms, Mueller-Hinton broth. The format is cell-based. To be noted: Mueller-Hinton broth with hemin and NAD, 24 hours, 5×10^4 CFU/well. The procedure:
as §1, §3

The test system of assay [6] is Moraxella catarrhalis. Described as above. The format is cell-based. Conditions: Mueller-Hinton broth with hemin and NAD, 24 hours, 5×10^4 CFU/well. On the procedure:
as §1, §3

Assay [7] concerns the target T1, MAO-A (Homo sapiens, UniProt P21397).
T1 construct: made in house; host or cells: yeast
T1 sequence (P21397 1-527): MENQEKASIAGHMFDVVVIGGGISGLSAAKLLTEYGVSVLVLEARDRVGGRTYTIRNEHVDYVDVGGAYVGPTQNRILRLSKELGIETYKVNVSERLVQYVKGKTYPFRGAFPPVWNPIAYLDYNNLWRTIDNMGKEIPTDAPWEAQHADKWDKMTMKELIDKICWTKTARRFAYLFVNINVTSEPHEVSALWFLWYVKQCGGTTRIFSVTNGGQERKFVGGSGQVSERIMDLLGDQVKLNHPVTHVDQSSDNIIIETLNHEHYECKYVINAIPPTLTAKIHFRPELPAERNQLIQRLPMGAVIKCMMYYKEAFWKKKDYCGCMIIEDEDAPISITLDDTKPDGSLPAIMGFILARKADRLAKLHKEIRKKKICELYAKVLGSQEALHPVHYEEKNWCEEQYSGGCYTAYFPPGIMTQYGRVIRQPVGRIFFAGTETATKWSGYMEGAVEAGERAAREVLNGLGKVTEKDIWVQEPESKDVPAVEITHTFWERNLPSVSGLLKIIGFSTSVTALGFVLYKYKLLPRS
The assay is described as follows: MAO-A standard in-vitro assay, human liver enzyme expressed in yeast. The format is biochemical. The procedure:
The activity of the compounds of the invention against MAO-A was tested using a standard in-vitro assay based on human liver enzyme expressed in yeast as described in Biochem. Biophys. Res. Commun. 1991, 181, 1084–1088.

≈ marks a conversion by molar mass, not a printed value. Where only a bound is given, the exact number is not on record here.

As to `[N-]=[N+]=NCc1cn(C[C@H]2CN(c3ccc(C4=CC[S+]([O-])CC4)c(F)c3)C(=O)O2)nn1` (stereo partly drawn) [Example 3, (5R)-3-[4-(1(R,S)-Oxo-3,6-dihydro-2H-thiopyran-4-yl)-3-fluorophenyl]-5-[(4-azidomethyl)-1,2,3-triazol-1-ylmethyl]oxazolidin-2-one], the MIC in assay [1] worked out at 8 µg/mL (≈ 18.5 µM); in assay [2] it was 4 µg/mL (≈ 9.27 µM); in assay [3] it was 2 µg/mL; in assay [4], 2 µg/mL; in assay [5], 2 µg/mL (≈ 4.64 µM); in assay [6], 4 µg/mL (≈ 9.27 µM). In assay [7], this molecule returned a Ki above 410 µM.

For the origin of these results see patent US7199143B2, “Chemical compounds” (AstraZeneca AB, priority 2002, dated 2007).
